Results from US20040054182A1, “1h-imidazopyridine derivatives” (priority 2000, published 2004).
Structures can show the parent of a compound that is named as a salt.

With `Cc1cccc2c1nc(C(F)(F)F)c1nc(-c3cccs3)n(CCC3CCNCC3)c12` (as salt: trifluoroacetate) (hydrate or solvate) [Example 98, 6-Methyl-1-[2-(4-piperidyl)ethyl]-2-(2-thienyl)-4-trifluoromethyl-1H-imidazo-[4,5-c]quinoline] the melting point was 227 to 229 °C (dec.). With `Fc1ccc2c(c1)nc(C(F)(F)F)c1nc(-c3ccc[nH]3)n(CCC3CCNCC3)c12` (as salt: trifluoroacetate) (hydrate or solvate) [Example 81, 7-Fluoro-1-[2-(4-piperidyl)ethyl]-2-(2-pyrrolyl)-4-trifluoromethyl-1H-imidazo-[4,5-c]quinoline] the melting point was 252 to 254 °C (dec.). For `FC(F)(F)c1nc2cc(Cl)ccc2c2c1nc(C1CCCCC1)n2CCC1CCNCC1` (as salt: trifluoroacetate) [Example 79, 7-Chloro-2-cyclohexyl-1-[2-(4-piperidyl)ethyl]-4-trifluoromethyl-1H-imidazo-[4,5-c]quinoline], the melting point was 236 to 237 °C (dec.). In the case of `c1c[nH]c(-c2nc3c(C4CC4)nc4ccccc4c3n2CCC2CCNCC2)c1` (hydrate or solvate) [Example 111, 4-Cyclopropyl-1-[2-(4-piperidyl)ethyl]-2-(2-pyrrolyl)-1H-imidazo[4,5-c]quinoline], the melting point is reported as 212 to 213.5 °C. In the case of `Cc1cccc2c1nc(C(F)(F)F)c1nc(-c3ccccc3)n(CCC3CCNCC3)c12` (as salt: trifluoroacetate) [Example 93, 6-Methyl-2-phenyl-1-[2-(4-piperidyl)ethyl]-4-trifluoromethyl-1H-imidazo-[4,5-c]quinoline], the melting point is reported as 218 to 219 °C (dec.). For `Cc1cccc2c1nc(C(F)(F)F)c1nc(-c3ncc[nH]3)n(CCC3CCNCC3)c12` (as salt: trifluoroacetate) (hydrate or solvate) [Example 96, 2-(2-1H-Imidazolyl)-6-methyl-1-[2-(4-piperidyl)ethyl]-4-trifluoromethyl-1H-imidazo[4,5-c]quinoline], the melting point was 306 to 308 °C (dec.). With `Cc1ccc2c(c1)nc(C(F)(F)F)c1nc(-c3ccccc3)n(CCC3CCNCC3)c12` (as salt: trifluoroacetate) [Example 86, 7-Methyl-2-phenyl-1-[2-(4-piperidyl)ethyl]-4-trifluoromethyl-1H-imidazo[4,5-c]-quinoline] the melting point was 234 to 235 °C (dec.). `c1ccc(-c2nc3ccccc3c3c2nc(-c2ccc[nH]2)n3CCC2CCNCC2)cc1` (hydrate or solvate) [Example 113, 4-Phenyl-1-[2-(4-piperidyl)ethyl]-2-(2-pyrrolyl)-1H-imidazo[4,5-c]quinoline] showed a melting point of 268 to 270 °C. In the case of `Cc1ccc2c(c1)nc(C(F)(F)F)c1nc(-c3ncc[nH]3)n(CCC3CCNCC3)c12` (as salt: trifluoroacetate) (hydrate or solvate) [Example 89, 2-(2-1H-Imidazolyl)-7-methyl-1-[2-(4-piperidyl)ethyl]-4-trifluoromethyl-1H-imidazo[4,5-c]quinoline], the melting point is reported as 303 to 305 °C (dec.). For `Cc1ccc2c(c1)nc(C(F)(F)F)c1nc(-c3ccc[nH]3)n(CCC3CCNCC3)c12` (as salt: trifluoroacetate) (hydrate or solvate) [Example 87, 7-Methyl-1-[2-(4-piperidyl)ethyl]-2-(2-pyrrolyl)-4-trifluoromethyl-1H-imidazo-[4,5-c]quinoline], the melting point was 280 to 284 °C (dec.). With `NCCn1c(-c2ccccc2)nc2c(C(F)(F)F)nc3ccccc3c21` [Example 108, 1-(2-Aminoethyl)-2-phenyl-4-trifluoromethyl-1H-imidazo[4,5-c]quinoline] the melting point was 174.5 to 175.5 °C. In the case of `Cc1cccc2c1nc(C(F)(F)F)c1nc(-c3ccc[nH]3)n(CCC3CCNCC3)c12` (as salt: trifluoroacetate) (hydrate or solvate) [Example 94, 6-Methyl-1-[2-(4-piperidyl)ethyl]-2-(2-pyrrolyl)-4-trifluoromethyl-1H-imidazo-[4,5-c]quinoline], the melting point is reported as 233 to 234 °C (dec.).
